Reference: article PMC9570995, “Design, Synthesis, and Biological Evaluation of Novel Dihydropyridine and Pyridine Analogs as Potent Human Tissue Nonspecific Alkaline Phosphatase Inhibitors with Anticancer Activity: ROS and DNA Damage-Induced Apoptosis” (Molecules, 2022)
Like-named read-outs stand apart in the source and are kept apart here.

What was measured:
MCF-7 cells = experiment: Cell cycle analysis by flow cytometry (PI); format: cell-based; details: 24 h, IC50 and 2 × IC50
Excerpt: The progression of the cell cycle is started by a cascade of intracellular signaling pathways to drive progression from the G0 phase to the G1 phase. The mammalian cell cycle involves an overexpression of D-type cyclins during the progression from the G0/G1 to the S-phase and eventually contributes to the development of cancer. Progression is controlled by D-type cyclins after binding with cyclin-dependent kinases (CDKs) and negatively controlled by binding to CDK inhibitors. CDK4/6 is involved in the G1/S transition of the cell cycle and has an important role in breast cancer. Retinoblastoma tumor suppressor protein (pRb) is deactivated through a CDK4/6-mediated phosphorylation reaction. In fact, cyclin D1/CDK4/6 is a mandatory controller of pRb phosphorylation. This phosphorylation deactivates the pRb that leads to cell proliferation.
PI was used as a fluorescent probe by flow cytometry through small modifications in a published method. The difference in DNA content between the G0/G1, S (synthesis), and G2/M phases can be compared with a control sample. The assay was conducted by seeding 3 × 10^5 cells/well and incubating them for 24 h in a CO2 incubator at 37 °C. […] After harvesting the cells as directed, these cells were centrifuged at 3000 rpm for 5 min and washed with sterile PBS. […] The obtained results were analyzed by using the BD Accuri^TM C6 and GraphPad Prism 5.01 software.

[1] = target: T1, human tissue nonspecific alkaline phosphatase (h-TNAP) (Homo sapiens, UniProt P05186); experiment: Alkaline phosphatase inhibition assay (p-NPP substrate); format: biochemical
T1 sequence (P05186 18-524): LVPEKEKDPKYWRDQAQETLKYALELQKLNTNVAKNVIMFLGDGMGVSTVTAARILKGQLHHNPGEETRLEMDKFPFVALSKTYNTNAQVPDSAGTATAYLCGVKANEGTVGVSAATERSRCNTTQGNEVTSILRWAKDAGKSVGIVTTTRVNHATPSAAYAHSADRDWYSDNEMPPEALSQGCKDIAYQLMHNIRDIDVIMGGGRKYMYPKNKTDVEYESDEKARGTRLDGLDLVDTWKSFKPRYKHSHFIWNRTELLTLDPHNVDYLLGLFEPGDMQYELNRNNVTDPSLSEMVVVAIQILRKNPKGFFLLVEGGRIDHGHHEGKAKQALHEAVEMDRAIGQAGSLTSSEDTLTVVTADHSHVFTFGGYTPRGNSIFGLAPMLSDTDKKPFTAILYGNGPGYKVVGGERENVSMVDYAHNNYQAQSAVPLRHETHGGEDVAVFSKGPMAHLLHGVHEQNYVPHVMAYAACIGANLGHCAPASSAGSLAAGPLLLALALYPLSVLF
Method: The newly synthesized compounds were tested against human tissue nonspecific alkaline phosphatase (h-TNAP). The compounds were initially tested against the h-TNAP enzymes at 1 mM concentration. The assay buffer (pH 9.5) constituted of 50% glycerol, followed by tris-hydrochloride (50.0 mM), MgCl2 (5.0 mM), and ZnCl2 (0.1 mM) in the solution. The enzyme substrate p-nitrophenyl phosphate (p-NPP) and all the required test compounds were diluted to the required concentration by a dilution buffer method. In a 96-well plate, the assay was started by adding 70 µL of assay buffer followed by 10.0 µL of the test compound (from 1 mM), 10.0 µL of the enzyme (0.5 µL/mL) and then subsequently incubating at 37 °C for 10 min. The reaction was initiated with the addition of 10.0 µL of substrate (5.0 mM p-NPP) into each well and incubated for an additional 30 min.
Percent inhibition was calculated by the formula:% Inhibition = [100 − (abs of test comp/abs of control) × 100]

HeLa cells = experiment: Microscopic evaluation of ROS generation (H2DCF-DA); format: cell-based; details: IC50 and 2 × IC50, versus control
Excerpt: The production of reactive oxygen species (ROS) has been an extensively researched topic in medicinal chemistry due to their involvement in numerous biochemical phases of health and disease. In a biological system, redox-sensitive fluorogenic materials such as 2′,7′-dichlorodihydrofluorescein-diacetate (DCFH2-DA) are commonly used to investigate the production of ROS during oxidative stress. It easily penetrates through the cell membrane, where esterase enzyme hydrolyzes the acetate group to a more hydrophilic group, which further oxidizes in the cytoplasmic region to give rise to a highly fluorescent product. In this study, the HeLa cells were used to investigate the production of ROS. The non-fluorescent material 2′,7′-dichlorodihydrofluorescein (DCFH2) converts into the fluorescent 2′,7′-dichlorofluorescein (DCF) under intracellular oxidative stress.
The production of reactive oxygen species (ROS) in compound 4d-treated HeLa cells was observed by applying a published protocol with some modifications. Cells at a density of 2 × 10^5 cells/well/mL were grown on round coverslips in a 24-well plate and kept in an incubator having humid 5% CO2 and 95% air at 37 °C. […] Cells were gently washed with PBS to remove excess dye, and images were captured at a magnification of 20× using excitation/emission filters at 488/530 nm with the help of a fluorescence microscope (Nikon ECLIPSE Ni–U).

- IC50 ([1]; Table 2, unit given in Table 1, read-out: Alkaline Phosphatase (h-TNAP) IC50): 1320 ± 260 nM
- fold more potent than levamisole ([1]; h-TNAP IC50 compared with levamisole): about seventeen-fold
- IC50 ([1]; h-TNAP, assay buffer pH 9.5, Table 1 and text, read-out: IC50 + SEM): 1320 ± 260 nM
SMILES: N#CC1=C(N)N(Cc2ccccc2)C(N)=C(C#N)C1c1ccc2ccccc2c1 [Compound 4d, 2,6-Diamino-1-benzyl-4-(naphthalen-2-yl)-1,4-dihydropyridine-3,5-dicarbonitrile]
- phase of cell cycle arrest (MCF-7 cells): G0/G1 phase
- production of ROS (HeLa cells): dose-dependent increase
